Assay results from patent US11623909B2, “Water-based extraction and purification processes for cannabinoid acids” (MEDPHARM IOWA LLC, priority 2019, dated 2023).

Columns and labels:
[1] = HPLC of acidified solution after precipitation of cannabinoid acid (amount remaining in solution); assay type: physicochemical
Excerpt: Precipitation of crude extract (CBDA) by acidification was done with either hydrochloric acid or nitric acid. No difference was observed between the two since the precipitation was pH driven. 1.0-1.5 equivalents of acid (relative to total base) was sufficient for precipitation of the crude extract. The crude extract had CBDA purities on the order of 40-50% and were independent of the amount of acid added. E.g. adding fewer than 1.0 equivalents in an attempt to selectively precipitate either impurities or CBDA yielded crude material with similar purities. Addition of more acid yielded more precipitate of similar purity (up to 1.0-1.5 equivalents). Addition of more than 1.5 equivalents yielded no additional precipitate. Though when the mixture was allowed to sit overnight more white precipitate formed. […]
‘Spent’ CO2-stripped biomass was aliquoted out to 50 g portions (˜6 g THCA). […] All filtrate was analyzed by HPLC prior to acidification. […] Both the filtrate and dried material were analyzed by HPLC. […]
Experiment A utilized a NaOH:THCA (mol:mol) ratio of 1:1 (see Table 4). […] The amount of THCA detected in the filtrate increased with each successive wash until a rinse with no added NaOH was conducted for 1 minute. […] The precipitate was filtered off, collected, and analyzed by HPLC. The filtrate was acidified to pH 2.16 to yield a tan/brown precipitate, filter, collected and analyzed by HPLC. […]

[2] = Solubility limit of THCA anions in aqueous NaOH wash (experiment A, 1:1 NaOH:THCA); assay type: physicochemical; details: NaOH:THCA 1:1 mol:mol, room temperature, conditions of experiment A
Procedure: ‘Spent’ CO2-stripped biomass was aliquoted out to 50 g portions (˜6 g THCA). Water (400 ml) and a 40 wt % solution of NaOH (see Tables 4-6) was added to the plant material. The mixture was allowed to stir for 10 minutes at 500-1000 RPM (speed was adjusted to minimize foaming). Solid materials were filtered off with coffee filters. The process was repeated for a total of 4 (Expt A) to 5 (Expts B&C) iterations. A final rinse 2×200 ml with no NaOH was stirred for 1 minute then filtered off. All filtrate was analyzed by HPLC prior to acidification. Acidification to pH 2-3 with HCl, as described above, yielded a precipitate which was filtered off and dried. Both the filtrate and dried material were analyzed by HPLC. All extractions were done at room temperature.
Experiment A utilized a NaOH:THCA (mol:mol) ratio of 1:1 (see Table 4). […] The amount of THCA detected in the filtrate increased with each successive wash until a rinse with no added NaOH was conducted for 1 minute. […] The precipitate was filtered off, collected, and analyzed by HPLC. The filtrate was acidified to pH 2.16 to yield a tan/brown precipitate, filter, collected and analyzed by HPLC. […] The final filtrate (left over after harvesting THCA) contained THCA quantities that were below the limit of quantification (less than 10 mg/400 g wash/rinse; that is <0.001 wt % THCA).

Structure (SMILES): CCCCCc1cc2c(c(O)c1C(=O)O)[C@@H]1C=C(C)CC[C@H]1C(C)(C)O2 [THCA]
- THCA in final filtrate after acidification (below limit of quantification) ([1]; filtrate after acidification to pH 2-3 with HCl and harvesting THCA, experiment A): < 0.001 wt % THCA
- solubility limit for THCA anions [2]: around 0.3 wt %

Structure (SMILES): C=C(C)[C@@H]1CCC(C)=C[C@H]1c1c(O)cc(CCCCC)c(C(=O)O)c1O [CBDA]
- CBDA remaining in acidified solution (loss) ([1]; acidified solution pH~4, after precipitation of crude extract): ~7 μg CBDA/ml
